Like-named read-outs stand apart in the source and are kept apart here. Each block holds one compound with its values, some of them ahead of it.
Assays:
[1] = tested on: CD4^+CD25^− spleen T cells; test: Th-17 differentiation of CD4 T cells stimulated with dendritic cells or spleen APCs plus TGF-β and IL-6 (intracellular IL-17 staining, IL-17 ELISA); type: cell-based, mouse
Description: (§1) For CD4^+CD25^− T cell isolation, spleens were removed, teased into cell-single suspensions and filtered through a 70 μm cell strainer (Fisher Scientific, USA). CD4^+CD25^−T cells were isolated by negative selection after incubation with a mix of specific biotin-conjugated mAbs (anti-CD8, CD11b, CD11ε, CD25, CD45R (B220), NK1.1, and TER119) at 1/200 dilution, and anti-biotin magnetic microbeads (25-40 μl per spleen) (Miltenyi Biotec, USA).
(§2) For dendritic cells isolation, spleen and MLN were chopped and digested by collagenase type D (Roche, USA) for 30 min at room temperature. Digested tissues were treated with 5 mM of EDTA for additional 5 min and mashed through a 70 μm cell strainer. Subsequently, CD11c^+ cells were enriched by positive selection using anti-CD11c microbeads according to the manufacturer's protocol (Miltenyi Biotec, USA). Enriched populations were stained with CD45-APC, CD 11c-PE, I-A^b-FITC and TCR β and sorted for TCRβ^−CD45^+CD11c^+I-Ab^+ by flow cytometry using a FACS-DIVA cell sorter (USA).
(§3) The culture medium used for dendritic cell-T cell cultures was Iscove's modified Dulbecco medium (IMDM) (Gibco, USA) supplemented with 10% heat-inactivated FCS, 2 mM L-glutamine, 100 U/ml penicillin, 100 μg/ml streptomycin, and 5 mM β-mercaptoethanol (all Sigma, USA). […] For dendritic cell-T cell cultures, 2×10^4 dendritic cells and 1×10^5 T cells were cultured in a volume of 200 μl (96-well plates). For irradiated APC-T cell cultures, 5×10^5 APCs and 1×10^5 T cells were cultured in a volume of 200 μl in 96-well plates (2×10^6 APCs and 0.5×10^6 T cells per well in 48-well plates). […] For the study shown in FIG. 4A, after sorting of naive CD4^+ cells (CD25^−CD44^lowCD62L^+), cells were washed twice in PBS+0.1% BSA, counted and labeled with 2 μM of CFSE (Carboxyfluorescein diacetate, succinimidyl ester) (Molecular Probes, USA) at a concentration of 5−10×10^6 cells per ml in PBS-0.1% BSA.
To block non-specific staining, the 2.4G2 anti-CD16/32 antibody was added.

CD4^+CD25^−T cells [2] = test: TGF-β-dependent Foxp3 induction (Treg differentiation) in CD4 T cells with dendritic cells or APCs; type: cell-based, mouse; conditions: OT-II CD4 cells, OVAp, TGF-β1; LE135 1 μM, RA 100 nM
Description: as §1, §2, §3
For Foxp3 staining, no stimulation with PMA/Ionomycin was performed, with the exceptions of FIGS. 8B and 9A. […]

[3] = tested on: CD4 cells cultured with MLN DCs (MDC) or splenic DCs (SDC); test: Retinal (RAL): TGF-β mediated Foxp3 induction (Treg differentiation) in DC/T cell co-cultures; type: cell-based
[4] = tested on: CD4 cells cultured with either MLN DCs (MDC) or splenic DCs (SDC); test: Retinal (RAL): TH-17 differentiation and IL-17 production in DC/T cell co-cultures; type: cell-based
[5] = tested on: retinoic-acid orphan receptor RORg-t; test: Retinal (RAL): RORg-t in APC-free system; type: cell-based
RAR = conditions: cited from earlier work
RXR = conditions: cited from earlier work
PPAR-γ = target: T1, PPAR-γ (Homo sapiens, UniProt P37231); conditions: cited from earlier work
T1 sequence (P37231 1-505): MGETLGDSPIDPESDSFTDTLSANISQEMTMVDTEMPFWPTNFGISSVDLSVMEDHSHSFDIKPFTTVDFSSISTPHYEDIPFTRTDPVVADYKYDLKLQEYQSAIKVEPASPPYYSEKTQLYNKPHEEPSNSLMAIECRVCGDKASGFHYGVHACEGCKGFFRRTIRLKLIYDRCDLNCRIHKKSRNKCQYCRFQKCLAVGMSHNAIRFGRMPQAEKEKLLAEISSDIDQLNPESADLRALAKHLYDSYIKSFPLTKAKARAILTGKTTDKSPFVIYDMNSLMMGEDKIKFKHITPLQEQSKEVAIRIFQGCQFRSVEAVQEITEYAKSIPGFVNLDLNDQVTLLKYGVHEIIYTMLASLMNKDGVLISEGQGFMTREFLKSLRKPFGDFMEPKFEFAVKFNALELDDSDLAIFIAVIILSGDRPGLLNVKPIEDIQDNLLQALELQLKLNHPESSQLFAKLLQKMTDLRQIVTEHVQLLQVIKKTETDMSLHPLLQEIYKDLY

CD4^+CD25^−T cells [6] = test: CTLA-4, CD103, CCR9 and CD25 staining of CD4 T cells stimulated with spleen APCs plus TGF-β1 and/or RA; type: cell-based, mouse; conditions: TGF-β1 added to RA
Description: as §1
APCs were isolated from spleen of C57BL/6 mice by negative selection using CD90.2 (Thy1.2) magnetic microbeads to deplete T cells (Miltenyi Biotec).
as §3
(§4) To block non-specific staining, the 2.4G2 anti-CD16/32 antibody was added. […] For intracellular cytokine staining, cells obtained from in vitro cultures or isolated IELs were incubated for 4-5 hours with 50 ng/ml PMA, 750 ng/ml Ionomycin (both Sigma, USA) and 10 μg/ml Brefeldin A (Invitrogen, USA) in a tissue culture incubator at 37° C.

[7] = tested on: CD4^+T cells from small intestine lamina propria and spleen; test: Oral Listeria monocytogenes infection (and naïve mice) treated with RA or LE540: IL-17^+ and Foxp3^+ CD4 T cells; type: in vivo, mouse
Text: Listeria monocytogenes (strain WT LMOVA) was used. Mice were orally infected (gavage) with 5×10^8 CFU of L. monocytogenes. Mice received i.p. injections of vehicle, RA or LE540 on the same day and 2 days after infection. Mice were sacrificed 5 days post-infection for analysis.
Every second day, in a interval of two weeks, naïve mice received gavage of either vehicle, RA or LE540.
Liver lymphocytes were isolated using 37.5% isotonic Percoll (GE Healthcare, USA), as previously described [Y. Kinjo et al, Nat Immunol 7, 978 (2006)]. Intestinal lymphocytes were isolated and prepared as previously described [Aranda et al., J Immunol 158, 3464 (1997)]. Briefly, small and large intestines were removed and placed in chilled HBSS media containing 5% FCS. The intestines were carefully cleaned from the mesentery and flushed of fecal content. Intestines were opened longitudinally and then cut into 1 cm pieces. The intestinal tissue was transferred to a 250-ml Erlenmeyer flasks containing 25 ml of preheated HBSS complemented with 2% FCS and 1 mM DTT (Sigma, USA) and shaken at 200 rpm for 40 min at 37° C. The tissue suspension was passed through a stainless steel sieve into 50-ml conical tubes and the cells were pelleted by centrifugation at 1200 rpm for 10 min at 4° C. The cell pellet was resuspended in complete HBSS, layered over a discontinuous 40/70% Percoll gradient, and centrifuged at 2000 rpm for 30 min. Cells from the 40/70% interface were collected, washed and resuspended in complete RPMI media. These purified cells constituted the intraepithelial lymphocyte (IEL) population. To isolate the lamina propria lymphocytes (LPL), the remaining intestinal tissue in the stainless steel sieve was minced and transferred to conical tubes. The minced pieces were resuspended in 20 ml of complete RPMI containing 1 mg/ml of collagenase (Sigma, USA) and shaken at 200 rpm for 40 min at 37° C. The tissue suspension was collected and passed through a 70 μm cell strainer and the cells were pelleted by centrifugation at 1200 rpm. The cells were then resuspended and layered onto a 40/70% Percoll gradient, centrifugated and processed as described above for the IEL preparation.
as §4
For Foxp3 staining, no stimulation with PMA/Ionomycin was performed, with the exceptions of FIGS. 8B and 9A. In these cases, the time of incubation with PMA/Ion was reduced to 3.5 hours. Intracellular Foxp3 staining was performed as per the eBioscience's Foxp3-staining kit protocol.

Compound: CN1c2cc3c(cc2N=C(c2ccc(C(=O)O)cc2)c2ccccc21)C(C)(C)CCC3(C)C [LE135]
relative inefficiency of MLN dendritic cells to mediate Th-17 differentiation ([1]; RAR antagonist included during activation under Th-17 conditions, 1 μM): reversed | TGF-β-dependent Foxp3 induction by MLN dendritic cells (CD4^+CD25^−T cells [2]): reduced | effect of RAR antagonist on RAL-increased Foxp3 induction ([3]; LE135 added with RAL): reversed Foxp3 induction

Compound: CC1=C(/C=C/C(C)=C\C=C\C(C)=C\C(=O)O)C(C)(C)CCC1 [9-cis RA, 9-cis retinoic acid]
Th-17 differentiation by spleen dendritic cells ([1]; added to cultures with TGF-β and IL-6, 100 nM): also inhibited the Th-17 differentiation by spleen dendritic cells

RORg-t [5]: inhibited
Compound: CC1=C(/C=C/C(C)=C/C=C/C(C)=C/C=O)C(C)(C)CCC1 [RAL, retinal]
TH-17 differentiation [4]: able to inhibit TH-17 differentiation | IL-17 production from CD4 cells ([4]; cultured with either MLN DCs (MDC) or splenic DCs (SDC)): suppresses IL-17 production | TH-17 differentiation ([4]; listed as retinal): suppressor of TH-17 differentiation | TGF-β mediated Foxp3 induction / Treg differentiation [3]: enhance TGF-β mediated Foxp3 induction | increased induction of Foxp3, MDC versus SDC cultures ([3]; DC/T cell co-cultures): observed mainly in MDC cultures | TGF-β mediated Foxp3 induction / Treg differentiation ([3]; listed as retinal): enhances Treg differentiation | binding to RAR (RAR): does not bind | binding to RXR (RXR): shown to bind | binding to PPAR-γ (PPAR-γ): shown to bind

Compound: CC(C)=CCCC(C)=CC=O [citral]
effect of RALDH inhibition on RAL effects on TH-17 differentiation ([4]; citral added with RAL): does not reverse RAL effects

Compound: TGF-β: cytokine, transforming growth factor-beta, exogenous, 5 ng/ml (R&D Systems)
RA-induced CCR9 expression (CD4^+CD25^−T cells [6]): partially antagonized

Compound: CN1c2cc3c(cc2N=C(c2ccc(C(=O)O)cc2)c2ccc4ccccc4c21)C(C)(C)CCC3(C)C [LE540]
Th-17 mucosal T cells (IL-17 staining of CD4^+T cells, small intestine lamina propria) ([7]; 5 days after oral L. monocytogenes infection, i.p. days 0 and 2, RA 300 μg/mouse, LE540 100 μg/mouse): no apparent difference compared to the controls | differentiation / number of mucosal Foxp3^+Treg cells (small intestine lamina propria) ([7]; Lm challenged mice, 5 days after oral infection): significantly reduce | spleen Foxp3^+CD4 cells ([7]; Lm infected mice (2 i.p. injections) and naïve mice (2-week gavage)): No effect
